Assay results: patent US11666539B2, “Synthetic lipid-like materials for brain delivery” (Trustees of Tufts College, priority 2020, dated 2023)

Tested on: flox-stop-flox tdTomato construct
Assay: (-27)GFP-Cre protein delivery, tdTomato expression in Ai14 mouse brain
Assay type: in vivo
Conditions: (-27)GFP-Cre/LNP weight ratio 1/4; four i.v. injections of 50 μg protein; brain slices, fluorescence imaging
From the text: GFP fused Cre recombinase was chosen as a model protein for the study, using the Ail4 model mouse line (FIG. 4A). The Ail4 mouse line contains a flox-stop-flox tdTomato construct. The successful intracellular delivery of Cre protein into the cells of Ail4 mouse leads to the gene recombination and turns on the tdTomato expression which can be directly visualized as red fluorescence signal without additional staining. Here, (−27)GFP-Cre protein was used. NT1-O14B LNPs doped with PBA-Q76-O16B was chosen, as these nanoparticles could successfully deliver (−27)GFP-Cre. The weight ratio of NT1-O14B and PBA-Q76-O16B was fixed at 3:7, based on the results observed from the AmB and ASO delivery. Lipid formulations were prepared using the approaches described for the formulation for ASO delivery. Briefly, the (−27)GFP-Cre protein was mixed with LNPs at a weight ratio of 1/4 and incubated the solution for 15 min at room temperature before intravenous injection. Mice were injected four times with a dose of 50 μg protein per injection. Five days after the last injection, the mice were sacrificed and brain tissues were collected, fixed, and dehydrated. Then the tissues were cryo-sectioned into […] slices and counter-stained with DAPI for fluorescence imaging.

Question: With `CCCCCCCCCCCCSSCCOC(=O)CC[N+](CCC(=O)OCCSSCCCCCCCCCCCC)(CCN1CCCC1)Cc1ccc(B(O)O)cc1` [PBA-Q76-O16B] as the molecule, how does the “tdTomato expression in the brain” value read?
Answer: Its value is “no tdTomato expression”.
